Reference: patent publication US5280027A, “Anti-tumor compounds” (Imperial Chemical Industries PLC, priority 1990, dated 1994)
Like-named read-outs stand apart in the source and are kept apart here.

Experiments:
[1] = tested on: human breast, ovarian and liver cancer; details: clinical; cited from earlier work
[2] = cited from earlier work
thymidylate synthase = target: T1, thymidylate synthase (Mus musculus, UniProt P07607); test: Test (a): in vitro inhibition of the enzyme thymidylate synthase (partially purified from L1210 mouse leukaemia cells); format: biochemical
T1 construct: obtained in partially purified form from L1210 mouse leukaemia cells; endogenous in cells; host or cells: L1210 mouse leukaemia cells (enzyme partially purified)
T1 sequence (P07607 whole entry): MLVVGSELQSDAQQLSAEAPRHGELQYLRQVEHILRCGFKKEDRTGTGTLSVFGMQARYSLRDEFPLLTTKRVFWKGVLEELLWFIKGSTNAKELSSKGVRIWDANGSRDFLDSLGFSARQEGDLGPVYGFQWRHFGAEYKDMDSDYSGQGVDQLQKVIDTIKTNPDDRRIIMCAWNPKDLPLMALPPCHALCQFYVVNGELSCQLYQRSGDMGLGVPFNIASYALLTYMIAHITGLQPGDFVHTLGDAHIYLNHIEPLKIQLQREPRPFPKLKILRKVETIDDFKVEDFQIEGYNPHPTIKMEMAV
Text: (a) An in vitro assay which determines the ability of a test compound to inhibit the enzyme thymidylate synthase. Thymidylate synthase was obtained in partially purified form from L1210 mouse leukaemia cells and utilised using the procedures described by Jackman et al. (Cancer Res., 1986, 46, 2810 and Sikora et al., Biochem. Pharmacol. 1988, 37, 4047);

L1210 cell line = test: Test (b): inhibition of growth of the leukaemia cell line L1210 in cell culture; format: cell-based; details: Mus musculus
Text: (b) An assay which determines the ability of a test compound to inhibit the growth of the leukaemia cell line L1210 in cell culture. The test is similar to that described in UK Patent Specification No. 2065653B and has been described by Jones et al., J. Med. Chem., 1985, 28, 1468;

MCF-7 cell line = test: Test (c): inhibition of growth of the human breast cancer cell line MCF-7 in cell culture; format: cell-based; details: MCF7, MCF-7 growth
Text: (c) An assay which determines the ability of a test compound to inhibit the growth of the human breast cancer cell line MCF-7 in cell culture. The test is similar to that described by Lippman et al. (Cancer Res., 1976, 36, 4595); and […]

[3] = Test (a), thymidylate synthase, read-out: IC50

| SMILES | activity against human breast, ovarian and liver cancer [1] | toxicity in humans, particularly in relation to the liver and kidney [2] | IC50 (thymidylate synthase; [3]) | IC50 (L1210 cell line) | IC50 (MCF-7 cell line) | IC50 (thymidylate synthase) |
| --- | --- | --- | --- | --- | --- | --- |
| C#CCN(Cc1ccc2nc(N)[nH]c(=O)c2c1)c1ccc(C(=O)N[C@@H](CCC(=O)O)C(=O)O)cc1 [CB3717] | promising activity | symptoms of toxicity in humans, particularly in relation to the liver and kidney | – | – | – | – |
| C#CCN(Cc1ccc2nc(C)[nH]c(=O)c2c1)c1ccc(C(=O)NC(c2ccccc2)c2ccccc2)cc1 [Example 7, N-diphenylmethyl-p-[N-(2-methyl-4-oxo-3,4-dihydroquinazolin-6-ylmethyl)-N-(prop-2-ynyl)amino]benzamide] | – | – | ~2000 nM | ~7000 nM | ~1500 nM | – |
| C#CCN(Cc1ccc2nc(C)[nH]c(=O)c2c1)c1ccc(C(=O)NC(C(=O)NS(=O)(=O)c2ccc(OC)cc2)c2cccc([N+](=O)[O-])c2)cc1 (centres unmarked) [Example 10, N-[p-[N-(2-methyl-4-oxo-3,4-dihydroquinazolin-6-ylmethyl)-N-(prop-2-ynyl)amino]benzoyl]-(3-nitrophenyl)glycine N-(4-methoxyphenylsulphonyl)amide] | – | – | – | ~25000 nM | ~1000 nM | ~10 nM |
| C#CCN(Cc1cc2c(=O)[nH]c(C)nc2cc1C)c1ccc(C(=O)NC(CO)c2cccc([N+](=O)[O-])c2)cc1 (centres unmarked) [Example 14, compound no. 2, p-[N-(2,7-dimethyl-4-oxo-3,4-dihydroquinazolin-6-ylmethyl)-N-(prop-2-ynyl)amino]-N-[2-hydroxy-1-(3-nitrophenyl)ethyl]benzamide] | – | – | ~20 nM | ~3400 nM | ~100 nM | – |
